Test results reported in patent US20060276844A1, “Ingestible device for nitric oxide production in tissue” (priority 2005, published 2006).

Experiments:
rat jejunum [1] = assay: NO-signal-enhanced drug permeation in rat jejunum in vitro, with NOS inhibitor L-NAME (FIGS. 2-3); format: in vitro ADME; details: 1 mM L-NAME plus NO signal (5 mA, 1 ms, 18 Hz), rat jejunum segments
Source text: Reference is made to FIGS. 2 and 3, which are graphs showing in vitro experimental results measured in accordance with an embodiment of the present invention. These experiments assessed the effect of the application of an electrical signal configured to enhance NO-associated drug permeation, which is inhibited by non-specific NOS inhibitor NG-Nitro-L-Arginine methyl ester (L-NAME) in rat jejunum in vitro. The NO-releasing electrical signal (hereinbelow, the “NO signal”) was applied with the following parameters: an amplitude of 5 mA, a pulse width of 1 ms, and a frequency of 18 Hz. In the experiment shown in FIG. 2, 1 mg/ml octreotide was applied to 11 segments of rat jejunum. The NO signal alone was applied to six of the segments, 1 mM L-NAME alone was applied to two of the segments, and the NO signal and 1 mM L-NAME were applied to three of the segments. In the experiment shown in FIG. 3, 1 mg/ml leuprolide was applied to 14 segments of rat jejunum. The NO signal alone was applied to three of the segments, 1 mM L-NAME alone was applied to two of the segments, the NO signal and 1 mM L-NAME were applied to three of the segments, and no treatment was applied to the remaining six segments.

rat jejunum [2] = assay: Octreotide permeation in rat jejunum in vitro: electrical stimulation versus NO donor (FIG. 4); format: in vitro ADME
Description: FIG. 4 is a graph showing in vitro experimental results measured in accordance with an embodiment of the present invention. In this experiment, the permeation-enhancing effect of electrical stimulation in rat jejunum in vitro was compared with the effect of an NO donor, molsidomine (SIN-10) (exogenous nitric oxide). The NO signal alone was applied to six segments of rat jejunum, 1 mM SIN-10 alone was applied to four segments, the NO signal and 1 mM SIN-10 were applied to three segments, and no treatment was applied to six segments.

COC(=O)[C@@H](N)CCCNC(=N)N[N+](=O)[O-] [L-NAME, NG-Nitro-L-Arginine methyl ester]
effect on NO-signal-enhanced drug permeation (octreotide) (rat jejunum [1]; FIG. 2, 1 mg/ml octreotide): nearly prevented
effect on NO-signal-enhanced drug permeation (leuprolide) (rat jejunum [1]; FIG. 3, 1 mg/ml leuprolide): nearly prevented

CCOC(=O)[N-]c1cn(N2CCOCC2)n[o+]1 [SIN-10, molsidomine]
rate of octreotide transepithelial transport compared with electrically-induced absorption (rat jejunum [2]; 1 mM SIN-10 alone): similar
effect of combination with electrical stimulation on enhanced permeation of octreotide, versus electrical stimulation alone (rat jejunum [2]; NO signal plus 1 mM SIN-10): did not augment
